# Where two headings read alike, the source gives them in different places.
# How the values were obtained:
# [1] = target: T1, M. tuberculosis isocitrate lyase (MtICL) (Mycobacterium tuberculosis, UniProt P9WKK7); assay: biochemical
# T1 construct: gene icl
# T1 sequence (P9WKK7 1-428): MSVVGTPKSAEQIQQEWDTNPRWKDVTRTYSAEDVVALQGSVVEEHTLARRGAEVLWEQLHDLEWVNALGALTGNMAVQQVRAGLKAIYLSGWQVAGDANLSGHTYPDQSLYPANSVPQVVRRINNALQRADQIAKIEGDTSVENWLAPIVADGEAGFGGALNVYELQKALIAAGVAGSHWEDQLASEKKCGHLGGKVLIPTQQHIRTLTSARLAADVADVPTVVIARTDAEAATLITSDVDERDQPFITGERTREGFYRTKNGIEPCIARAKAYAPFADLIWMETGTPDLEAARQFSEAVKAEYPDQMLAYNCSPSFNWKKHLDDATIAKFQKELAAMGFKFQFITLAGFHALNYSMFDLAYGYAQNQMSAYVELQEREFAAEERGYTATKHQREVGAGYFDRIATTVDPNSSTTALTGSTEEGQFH
# [2] = target: T1, M. tuberculosis isocitrate lyase (MtICL); assay: biochemical; remark: listed apart in the source
SMILES,IC50 [1] [µM],IC50 [2] [µM]
"O=c1ccc2ccc(O)c(O)c2o1 [MOL005118, Daphnetin]",24.4,–
"O=C(O)C(=O)CBr [3-BP, 3-bromopyruvic acid]",–,63.6 ± 2.8
"C=C(CC(=O)O)C(=O)O [IA, itaconic acid]",–,38.6 ± 0.8
